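Five concentrations, 48 hours, 96-well plates. GI50 = concentration required for 50% inhibition of growth. TGI: total growth inhibition.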
Experiments:
Test in all cases: growth of human tumour cells (NCI), 48 h
A549 NSCLC = system: A549 NSCLC
U251 CNS = system: U251 CNS
UACC-257 melanoma = system: UACC-257 melanoma
SF-268 CNS = system: SF-268 CNS
HCC-2998 colon = system: HCC-2998 colon
MDA-MB-435 = system: MDA-MB-435
OVCAR-5 ovarian = system: OVCAR-5 ovarian
HT29 colon = system: HT29 colon
SK-MEL-5 melanoma = system: SK-MEL-5 melanoma
OVCAR-4 ovarian = system: OVCAR-4 ovarian
TK-10 renal = system: TK-10 renal
T-47D breast = system: T-47D breast
HL-60(TB) leukemia = system: HL-60(TB) leukemia
SNB-75 CNS = system: SNB-75 CNS
MCF7 breast = system: MCF7 breast
MOLT-4 leukemia = system: MOLT-4 leukemia
HS 578T breast = system: HS 578T breast
MALME-3M melanoma = system: MALME-3M melanoma
UO-31 renal = system: UO-31 renal
786-0 renal = system: 786-0 renal
SW-620 colon = system: SW-620 colon
A498 renal = system: A498 renal
SN12C renal = system: SN12C renal
K-562 leukemia = system: K-562 leukemia
ACHN renal = system: ACHN renal
UACC-62 melanoma = system: UACC-62 melanoma
HOP-62 NSCLC = system: HOP-62 NSCLC

SMILES: COc1ccc(S(=O)(=O)N(Cc2ccc3c(n2)C=CC(C)(C)O3)C2CCC2)cc1OC
- GI50 (A549 NSCLC): 0.0233 µM
- TGI (A549 NSCLC): 1.66 µM
- GI50 (U251 CNS): < 0.01 µM
- TGI (U251 CNS): 0.883 µM
- GI50 (UACC-257 melanoma): < 0.0105 µM
- TGI (UACC-257 melanoma): 0.239 µM
- GI50 (SF-268 CNS): < 0.01 µM
- TGI (SF-268 CNS): 1.13 µM
- GI50 (HCC-2998 colon): < 0.01 µM
- TGI (HCC-2998 colon): 3.79 µM
- GI50 (MDA-MB-435): < 0.01 µM
- TGI (MDA-MB-435): 0.422 µM
- GI50 (OVCAR-5 ovarian): < 0.01 µM
- TGI (OVCAR-5 ovarian): 7.25 µM
- GI50 (HT29 colon): 0.021 µM
- TGI (HT29 colon): > 36.6 µM
- GI50 (SK-MEL-5 melanoma): < 0.01 µM
- TGI (SK-MEL-5 melanoma): 0.0376 µM
- GI50 (OVCAR-4 ovarian): < 0.01 µM
- TGI (OVCAR-4 ovarian): 0.266 µM
- GI50 (TK-10 renal): < 0.01 µM
- TGI (TK-10 renal): 1.59 µM
- GI50 (T-47D breast): < 0.01 µM
- TGI (T-47D breast): 0.231 µM
- GI50 (HL-60(TB) leukemia): < 0.01 µM
- TGI (HL-60(TB) leukemia): 0.0249 µM
- GI50 (SNB-75 CNS): < 0.01 µM
- TGI (SNB-75 CNS): 0.238 µM
- GI50 (MCF7 breast): 0.0169 µM
- TGI (MCF7 breast): > 38.2 µM
- GI50 (MOLT-4 leukemia): < 0.01 µM
- TGI (MOLT-4 leukemia): 0.0355 µM
- GI50 (HS 578T breast): < 0.01 µM
- TGI (HS 578T breast): 0.0677 µM
- GI50 (MALME-3M melanoma): < 0.01 µM
- TGI (MALME-3M melanoma): 0.0209 µM
- GI50 (UO-31 renal): < 0.01 µM
- TGI (UO-31 renal): 0.871 µM
- GI50 (786-0 renal): < 0.01 µM
- TGI (786-0 renal): 0.374 µM
- GI50 (SW-620 colon): < 0.01 µM
- TGI (SW-620 colon): > 35.1 µM
- GI50 (A498 renal): < 0.01 µM
- TGI (A498 renal): 0.0431 µM
- GI50 (SN12C renal): < 0.01 µM
- TGI (SN12C renal): 0.161 µM
- GI50 (K-562 leukemia): < 0.01 µM
- TGI (K-562 leukemia): > 100 µM
- GI50 (ACHN renal): < 0.01 µM
- TGI (ACHN renal): 0.0734 µM
- GI50 (UACC-62 melanoma): < 0.01 µM
- TGI (UACC-62 melanoma): 0.05 µM
- GI50 (HOP-62 NSCLC): < 0.01 µM
- TGI (HOP-62 NSCLC): 1.29 µM

From PubChem BioAssay (NCI)
